Laboratory results from patent publication US3966745A, “Vinvamine series cycloalkyl-alkyl esters” (Synthelabo, priority 1973, dated 1976).

Columns and labels:
mice = experiment: Hypobaric anoxia in mice (survival time); assay type: in vivo, male mice of the Swiss strain; conditions: for ED (100% increase in survival time): Mus musculus, ip, intraperitoneal administration, dose which increases survival time by 100%, residual pressure 19 cm of Hg, read-out: MAD (mean active dose), absolute value; for therapeutic index relative to that of vincamine (times more favourable): from LD50 and MAD, mice, intraperitoneal, versus vincamine
From the text: The mice are kept in an atmosphere which is depleted in oxygen by creating a partial vacuum. The degree of anoxia was chosen after preliminary tests. The survival time of the control and treated animals is noted.
The chamber into which the animals are introduced is a chemical desiccator, divided into 7 compartments. Calcium oxide is placed in this chamber in order to absorb the expired carbon dioxide. This desicator is connected to a vacuum pump and to a manometer to measure the residual pressure.
The injections are carried out using a volume of 0.5 ml per 20 g of body weight.
7 animals are introduced at the same time into the chamber, i.e. 1 control mouse (treated with physiological serum), 3 mice each treated with a different dose of a reference substance, and three mice each treated with a different dose of a test substance.
The chamber is then evacuated until the residual pressure therein is 19 cm of Hg (this is achieved in approximately 30 seconds).
The survival time i.e. the time until the animals stop breathing of each of the animals is then recorded. […] The percentage increases are calculated from values obtained for each batch of animals.
The reference substance was vincamine.

[1] = Acute toxicity (LD50, mice, intraperitoneal); conditions: mouse, in vivo, ip; intraperitoneal administration; Swiss mice of both sexes; method of Miller and Tainter
Protocol: The tests were carried out on mice of the Swiss strain of both sexes, each weighing 20 g on average. The LD50 's were calculated in accordance with the method of Miller and Tainter (Proc. Soc. exp. Biol. Med., 1944, 57, 261).

| Compound | ED (100% increase in survival time) (mice) [mg/kg] | LD50 [1] [mg/kg] | therapeutic index relative to that of vincamine (times more favourable) (mice) [times] |
| --- | --- | --- | --- |
| CCC12CCCN3CCc4c(n(c5ccccc45)C(O)(C(=O)OCC4CC4)C1)C32 (stereo not shown) [SL 72-401, Cyclopropylmethyl vincaminate] | 11 | 220 |  |
| CCC12C=C(C(=O)OCC3CC3)n3c4c(c5ccccc53)CCN(CCC1)C42 (stereo not shown) [SL 73-005, Cyclopropylmethyl apovincaminate] | 6 | 380 | 2.5 |
| CCC12CCCN3CCc4c(n(c5ccccc45)C(C(=O)OCC4CC4)C1)C32 (stereo not shown) [SL 73-041, Cyclopropylmethyl desoxyvincaminate] | 6 | 260 | 1.6 |
| CC[C@]12CCCN3CCc4c(n(c5ccccc45)[C@@](O)(C(=O)OC)C1)[C@@H]32 [Vincamine, vincamine, reference compound] | 8 | 215 |  |
